Experimental data from patent US8999408B2, “Amla extract for transdermal application” (priority 2006, dated 2015).

Key:
[1] = Transdermal diffusion of Vitamin C / reductones across guinea pig abdominal skin in a diffusion cell; type: in vitro ADME; conditions: for Reductones transported across the guinea pig membrane: 3 hours, 37° C., phosphate buffer pH 7; for Fraction trans-dermal percent: 10 mg applied, after 3 hours, relative to reductone equivalent present in application
Protocol: The diffusion studies were carried out across the guinea pig abdominal skin. […] The guinea pig abdominal skin was placed between the upper and lower chambers of the diffusion cell, thereby separating the 2 chambers. The test composition was introduced into the upper chamber. Migration of the components from the upper chamber to the lower chamber (which had liquid or buffer at body pH) through the guinea pig abdominal skin allowed comparative studies for extent of migration of the components from different test compositions.
After introducing the test material in the upper chamber, the diffusion was carried out for 3 hours.
The lower chamber of the diffusion cells were filled with 15 ml of phosphate buffer, pH 7, and the prepared guinea pig skins were fixed on each diffusion cell between the upper and lower chambers of the diffusion cell. The temperature of the diffusion cell was maintained at 37° C.
The diffusion across the skin membrane of active ingredients, that is, scorbutic reductones (that is Vitamin C actives substances including ascorbic acid) and hydrogen ions was carried out for three hours.
To an aliquot (5 ml) of supernatant of the HPO3 extract 2.5 ml of acetone was added and the resulting solution was titrated with dye 2,6-dichloro indophenol until a faint pink color persisted for 15 seconds. The concentration of Vitamin C in the sample was expressed as mg ascorbic acid equivalent to 1 ml of the dye solution.

[2] = Radical scavenging by the DPPH (diphenylpicryl-hydrazyl) method; conditions: 10 mg dose

O=C1O[C@H]([C@@H](O)CO)C(O)=C1O [ascorbic acid]
Reductones transported across the guinea pig membrane ([1]; 10 mg applied on guinea pig membrane): 0.3 mg | Fraction trans-dermal percent [1]: 3.0% | Fraction trans-dermal percent ([1]; listed as Vitamin C): 3% | Reductones transported across the guinea pig membrane ([1]; 100 mg applied on guinea pig membrane): 8.4 mg | inhibition (DPPH radical scavenging) [2]: −4.66%
